Source: patent US20090029997A1, “Thiazole Derivatives and Use Thereof” (LABORATOIRES SERONO SA, priority 2006, published 2009)

How the values were obtained:
[1] = test system: Class I PI3-kinases; conditions: Fruman et al., 1998; read-out: IC50 against each of the various Class I PI3-kinases; cited from earlier work
[2] = molecular target: Human recombinant GST-PI3Kγ (Homo sapiens, UniProt P48736); assay: High throughput PI3K lipid kinase assay (SPA, neomycin-coated beads); assay type: biochemical; conditions: 180 min at room temperature
Human recombinant GST-PI3Kγ, sequence (P48736 whole entry): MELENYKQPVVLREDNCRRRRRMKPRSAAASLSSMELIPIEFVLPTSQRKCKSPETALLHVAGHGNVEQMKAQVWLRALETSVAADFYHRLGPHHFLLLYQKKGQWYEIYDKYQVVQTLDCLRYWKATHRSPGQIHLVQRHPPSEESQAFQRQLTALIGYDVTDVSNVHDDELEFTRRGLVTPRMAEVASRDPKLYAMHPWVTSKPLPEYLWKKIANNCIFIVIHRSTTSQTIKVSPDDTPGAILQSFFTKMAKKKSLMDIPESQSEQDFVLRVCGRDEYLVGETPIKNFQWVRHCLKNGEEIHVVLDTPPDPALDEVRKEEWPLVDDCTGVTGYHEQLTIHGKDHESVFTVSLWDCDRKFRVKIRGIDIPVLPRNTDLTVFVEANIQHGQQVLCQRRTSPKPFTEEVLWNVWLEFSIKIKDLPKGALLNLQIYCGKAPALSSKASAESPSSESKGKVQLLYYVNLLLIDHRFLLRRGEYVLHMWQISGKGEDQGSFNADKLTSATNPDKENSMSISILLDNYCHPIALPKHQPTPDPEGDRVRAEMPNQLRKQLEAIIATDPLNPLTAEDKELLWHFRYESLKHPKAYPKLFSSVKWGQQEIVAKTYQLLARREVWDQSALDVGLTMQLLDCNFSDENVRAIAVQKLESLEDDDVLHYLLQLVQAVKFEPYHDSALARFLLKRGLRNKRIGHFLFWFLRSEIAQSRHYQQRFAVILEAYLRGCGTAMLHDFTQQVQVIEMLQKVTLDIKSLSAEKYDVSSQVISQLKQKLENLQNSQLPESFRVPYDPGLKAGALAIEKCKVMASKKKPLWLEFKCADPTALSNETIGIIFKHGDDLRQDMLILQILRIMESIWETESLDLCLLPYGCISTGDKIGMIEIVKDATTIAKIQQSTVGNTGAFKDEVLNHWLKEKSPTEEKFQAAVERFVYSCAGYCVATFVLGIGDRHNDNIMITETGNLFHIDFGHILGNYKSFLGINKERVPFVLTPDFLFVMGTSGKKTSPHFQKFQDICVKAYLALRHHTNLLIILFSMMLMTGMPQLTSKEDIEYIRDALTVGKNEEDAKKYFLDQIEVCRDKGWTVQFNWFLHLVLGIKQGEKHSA
Excerpt: a) High Throughput PI3K Lipid Kinase Assay (Binding Assay):
The efficacy of compounds of the invention in inhibiting the PI3K induced-lipid phosphorylation may be tested in the following binding assay.
The assay combines the scintillation proximity assay technology (SPA, Amersham) with the capacity of neomycin (a polycationic antibiotic) to bind phospholipids with high affinity and specificity. The Scintillation Proximity Assay is based on the properties of weakly emitting isotopes (such as ^3H, ^125I, ^33P). Coating SPA beads with neomycin allows the detection of phosphorylated lipid substrates after incubation with recombinant PI3K and radioactive ATP in the same well, by capturing the radioactive phospholipids to the SPA beads through their specific binding to neomycin.
To a 384 wells MTP containing 5 μl of the test compound of Formula (I) (solubilized in 6% DMSO; to yield a concentration of 100, 30, 10, 3, 1, 0.3, 0.1, 0.03, 0.01, 01 μM of the test compound), the following assay components are added. 1) 5 μl (58 ng) of Human recombinant GST-PI3Kγ (in Hepes 40 mM, pH 7.4, DTT 1 mM and ethyleneglycol 5%) 2) 10 μl of lipid micelles and 3) 10 μl of Kinase buffer ([^33P]γ-ATP 45 μM/60 nCi, MgCl2 30 mM, DTT 1 mM, β-Glycerophosphate 1 mM, Na3VO4 100 μM, Na Cholate 0.3%, in Hepes 40 mM, pH 7.4). After incubation at room temperature for 180 minutes, with gentle agitation, the reaction is stopped by addition of 60 μl of a solution containing 100 μg of neomycin-coated PVT SPA beads in PBS containing ATP 10 mM and EDTA 5 mM. The assay is further incubated at room temperature for 60 minutes with gentle agitation to allow binding of phospholipids to neomycin-SPA beads. After precipitation of the neomycin-coated PVT SPA beads for 5 minutes at 1500×g, radioactive PtdIns(3)P is quantified by scintillation counting in a Wallac MicroBeta™ plate counter.
The values indicated in Table I below refer to the IC50 (μM) with respect to PI3Kγ, i.e. the amount necessary to achieve 50% inhibition of said target. Said values show a considerable inhibitory potency of thiazole compounds with regard to PI3Kγ.

[3] = test system: Akt/PKB phosphorylation in Raw 264-7 macrophages; assay: Cell based ELISA of Akt/PKB phosphorylation after Complement 5a stimulation; conditions: Mus musculus, RAW264.7, 50 nM Complement 5a for 5 minutes, inhibitor pretreatment 20 minutes, read-out: Cell Assay (P-Akt, Elisa) IC50
Protocol: b) Cell Based ELISA to Monitor PI3K Inhibition:
The efficacy of compounds of the invention in inhibiting the PI3K induced Akt/PKB phosphorylation may be tested in the following cell based assay.
Measurement of Akt/PKB phosphorylation in macrophages after stimulation with Complement 5a: Raw 264: Raw 264-7 macrophages (cultured in DMEM-F12 medium containing 10% Fetal Calf serum and antibiotics) are plated at 20'000 cells/well in a 96 MTP 24 h before cell stimulation. Prior to the stimulation with 50 nM of Complement 5a during 5 minutes, Cells are serum starved for 2 h, and pretreated with inhibitors for 20 minutes. After stimulation cells are fixed in 4% formaldehyde for 20 minutes and washed 3 times in PBS containing 1% Triton X-100 (PBS/Triton). […] Next, phosphorylated Akt/PKB is detected by an overnight incubation at 4° C. with primary antibody (anti phospho Serine 473 Akt IHC, Cell Signaling) diluted 800-fold in PBS/Triton, containing 5% bovine serum albumin (BSA). After 3 washes in PBS/Triton, cells are incubated for 60 minutes with a peroxidase conjugated goat-anti-rabbit secondary antibody (1/400 dilution in PBS/Triton, containing 5% BSA), washed 3 times in PBS/Triton, and 2 times in PBS and further incubated in 100 μl of luminescent substrate reagent solution (Pierce) for 2 minutes, followed by the reading (1 s/well). […]

| Compound | IC50 [1] [nM] | IC50 [2] [nM] | IC50 [3] [nM] |
| --- | --- | --- | --- |
| wortmannin | 1 to 10 | – | – |
| COc1ccc(S(=O)(=O)n2cc(-c3sc(NC(C)=O)nc3C)cn2)cn1 [Example 7, N-(5-{1-[(6-methoxypyridin-3-yl)sulfonyl]-1H-pyrazol-4-yl}-4-methyl-1,3-thiazol-2-yl)acetamide] | – | 282 | – |
| CC(=O)Nc1nc(C)c(-c2cn[nH]c2)s1 [Example 3, N-[4-methyl-5-(1H-pyrazol-4-yl)-1,3-thiazol-2-yl]acetamide] | – | 413 | – |
| CC(=O)Nc1nc(C)c(-c2cnn(C)c2)s1 [Example 1, N-[4-methyl-5-(1-methyl-1H-pyrazol-4-yl)-1,3-thiazol-2-yl]acetamide] | – | 1340 | – |
| CC(=O)Nc1nc(C)c(-c2cnn(S(=O)(=O)c3cn(C)cn3)c2)s1 [Example 8, N-(4-methyl-5-{1-[(1-methyl-1H-imidazol-4-yl)sulfonyl]-1H-pyrazol-4-yl}-1,3-thiazol-2-yl)acetamide] | – | 111 | 850 |
| CC(=O)Nc1nc(C)c(-c2cnn(C(=O)NCCN(C)C)c2)s1 [Example 5, 4-[2-(acetylamino)-4-methyl-1,3-thiazol-5-yl]-N-[2-(dimethylamino)ethyl]-1H-pyrazole-1-carboxamide] | – | 1230 | – |
| CC(=O)Nc1nc(C)c(-c2cnn(S(=O)(=O)c3ccc(C(=O)O)cc3)c2)s1 [Example 14, 4-({4-[2-(acetylamino)-4-methyl-1,3-thiazol-5-yl]-1H-pyrazol-1-yl}sulfonyl)benzoic acid] | – | 708 | – |
